Measured values from US20060217370A1, “Compounds useful for the treatment and prevention of pain and screening methods therefor” (priority 2005, published 2006).

Experiments:
Experiment in all cases: Receptor Selection and Amplification Technology (R-SAT) functional receptor assay
human MrgX1 = biological target: T1, human MrgX1 (Homo sapiens, UniProt Q96LB2); assay type: cell-based; conditions: for Human-X1 Eff(%): efficacy relative to Bam22, nr = no response up to 10 micromolar
T1 construct: expressed in transfected cells; host or cells: NIH3T3
Method: (§1) The functional receptor assay, Receptor Selection and Amplification Technology (R-SAT), was used to investigate the pharmacological properties of test compounds on MRGX1 or MRGX2 receptors. R-SAT is disclosed in U.S. Pat. Nos. 5,707,798, 5,912,132, and 5,955,281, each of which is incorporated by reference herein in its entirety, including any drawings.
(§2) Briefly, NIH3T3 cells were grown in 96-well tissue culture plates to 70-80% confluence. Cells were transfected for 16-20 h with plasmid DNAs using Polyfect (Qiagen Inc.) and the manufacturer's protocols. R-SATs were generally performed with 4 ng/well of receptor and 20 ng/well of β-galactosidase plasmid DNA. The human MrgX1, simian MrgX1, human MrgX2 and simian MrgX2 receptor genes were amplified by PCR from genomic DNA using oligodeoxynucleotide primers based on SEQ ID NO:1, SEQ ID NO:3, SEQ ID NO:5, SEQ ID NO:7, or SEQ ID NO:9. For large-scale transfections, cells were transfected for 16-20 h, then trypsinized and frozen in DMSO. Frozen cells were later thawed, plated at ˜10,000 cells per well of a 96 half-area well plate that contained test compound. With both methods, cells were then grown in a humidified atmosphere with 5% ambient CO2 for five days. The medium was then removed from the plates and marker gene activity was measured by the addition of the β-galactosidase substrate o-nitrophenyl β-galactopyranoside (ONPG, in PBS with 0.5% NP-40). The resulting colorimetric reaction was measured in a spectrophotometric plate reader (Titertek Inc.) at 420 nm. All data were analyzed using the computer program XLFit (IDBSm). Efficacy is defined as the percent maximal activation compared to activation by a control compound (BAM22 in the case of human or simian MRGX1, STIA or Cortistatin-14 in the case of human or simian MRGX2). pEC50 is the negative of log(EC50), where EC50 is the calculated molar concentration of test compound that produces 50% of maximum activation.
(§3) Efficacy is reported relative to the ligands Bam22 for MrgX1 and STIA for MrgX2.

human MrgX2 = biological target: T2, human MrgX2 (Homo sapiens, UniProt Q96LB1); assay type: cell-based; conditions: for Human-X2 Eff(%): efficacy relative to STIA, nr = no response up to 10 micromolar; for EC50: transfected NIH3T3 cells, read-out: Human-X2 pEC50 (converted)
T2 construct: expressed in transfected cells; host or cells: NIH3T3
T2 sequence (Q96LB1 1-330): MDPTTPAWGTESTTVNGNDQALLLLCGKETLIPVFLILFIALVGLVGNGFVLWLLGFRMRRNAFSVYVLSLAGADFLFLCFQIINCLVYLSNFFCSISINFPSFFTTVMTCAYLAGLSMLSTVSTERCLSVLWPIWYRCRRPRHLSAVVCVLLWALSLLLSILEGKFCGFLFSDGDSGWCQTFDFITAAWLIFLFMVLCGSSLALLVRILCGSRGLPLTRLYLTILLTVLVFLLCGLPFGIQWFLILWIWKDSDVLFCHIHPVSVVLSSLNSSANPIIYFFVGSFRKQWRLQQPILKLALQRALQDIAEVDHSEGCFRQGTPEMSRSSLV
Method: as §1, §2, §3

simian MrgX1 = simian MrgX1 (Macaca mulatta, UniProt Q1L4E8, cells depend on it, form not given, species not given); assay type: cell-based, monkey; conditions: efficacy relative to Bam22, nr = no response up to 10 micromolar
Method: as §1
Briefly, NIH3T3 cells were grown in 96-well tissue culture plates to 70-80% confluence. Cells were transfected for 16-20 h with plasmid DNAs using Polyfect (Qiagen Inc.) and the manufacturer's protocols. R-SATs were generally performed with 4 ng/well of receptor and 20 ng/well of β-galactosidase plasmid DNA. The human MrgX1, simian MrgX1, human MrgX2 and simian MrgX2 receptor genes were amplified by PCR from genomic DNA using oligodeoxynucleotide primers based on SEQ ID NO:1, SEQ ID NO:3, SEQ ID NO:5, SEQ ID NO:7, or SEQ ID NO:9. For large-scale transfections, cells were transfected for 16-20 h, then trypsinized and frozen in DMSO. […] The medium was then removed from the plates and marker gene activity was measured by the addition of the β-galactosidase substrate o-nitrophenyl β-galactopyranoside (ONPG, in PBS with 0.5% NP-40). The resulting colorimetric reaction was measured in a spectrophotometric plate reader (Titertek Inc.) at 420 nm. All data were analyzed using the computer program XLFit (IDBSm). […]

T1 sequence (Q96LB2 whole entry): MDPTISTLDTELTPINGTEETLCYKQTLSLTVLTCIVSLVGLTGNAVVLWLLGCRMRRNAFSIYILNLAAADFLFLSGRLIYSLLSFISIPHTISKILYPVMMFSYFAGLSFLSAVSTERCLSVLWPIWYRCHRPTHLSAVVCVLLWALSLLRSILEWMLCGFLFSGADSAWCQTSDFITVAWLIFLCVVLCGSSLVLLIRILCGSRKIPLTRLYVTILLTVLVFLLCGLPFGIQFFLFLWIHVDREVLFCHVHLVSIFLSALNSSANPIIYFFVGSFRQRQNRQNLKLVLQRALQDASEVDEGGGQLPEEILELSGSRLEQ
simian MrgX1, sequence (Q1L4E8 1-322, change not shown): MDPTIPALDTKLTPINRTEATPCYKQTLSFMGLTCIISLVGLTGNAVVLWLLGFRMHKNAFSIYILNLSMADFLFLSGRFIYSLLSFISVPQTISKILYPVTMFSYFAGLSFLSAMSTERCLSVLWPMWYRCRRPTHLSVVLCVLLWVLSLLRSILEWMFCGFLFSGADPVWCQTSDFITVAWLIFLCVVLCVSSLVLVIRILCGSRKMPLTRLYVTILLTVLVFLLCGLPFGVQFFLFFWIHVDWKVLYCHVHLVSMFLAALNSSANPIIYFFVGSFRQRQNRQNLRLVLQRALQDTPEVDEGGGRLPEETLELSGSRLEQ

Human-X1 Eff(%) (human MrgX1)	Human-X2 Eff(%) (human MrgX2)	EC50 (human MrgX2) [nM]	Monkey-X1 Eff(%) (simian MrgX1)	EC50 (human MrgX1; transfected NIH3T3 cells, read-out: Human-X1 pEC50 (converted)) [nM]	Compound
nr	174	100	nr	–	CC(C)C1C(=O)Nc2ccc(N3CCN(Cc4ccccc4)CC3)cc2-c2nc3cc(C(=O)N(C)C4CCN(C)CC4)ccc3n21 (centres unmarked) [Mrg-606]
124%	98	316	–	39.8	CC[C@H](C)C1C(=O)Nc2ccc(NCCCN(C)C)cc2-c2nc3cc(C(=O)NCc4cccc(C(F)(F)F)c4)ccc3n21 (some centres unmarked) [Mrg-173]
